Article PMC6522510 (Nature Communications, 2019)
“And” between values parts separate entries of the source, which are not always exact repeats. Equal entries are not always repeated. Structures can show the parent of a compound that is named as a salt. Where two headings read alike, the source gives them in different places.

How the values were obtained:
MV4-11 [1] = experiment: Secondary dose-response HTS, Cell Titer Glo; assay type: cell-based, human; conditions: Homo sapiens
MOLM-13 [2] = experiment: Secondary dose-response HTS, Cell Titer Glo; assay type: cell-based, human; conditions: Homo sapiens
CMS [3] = experiment: Secondary dose-response HTS, Cell Titer Glo; assay type: cell-based, human; conditions: Homo sapiens, HTS, read-out: average effective concentration, CMS
ML2 = experiment: Secondary dose-response HTS, Cell Titer Glo; assay type: cell-based, human; conditions: for EC50: Homo sapiens
U937 [4] = experiment: Secondary dose-response HTS, Cell Titer Glo; assay type: cell-based, human; conditions: Homo sapiens, U-937; secondary high-throughput screen; U937; read-out: average effective concentration, U937
M07e [5] = experiment: cells; parameters: species or system AML cell lines (8); Secondary HTS, 10-point dose-response in triplicate, Cell Titer Glo viability, four-parameter fit EC50; conditions: M-07e, 72 h, read-out: M07e
CMK [6] = experiment: cells; parameters: species or system AML cell lines (8); Secondary HTS, 10-point dose-response in triplicate, Cell Titer Glo viability, four-parameter fit EC50; conditions: Homo sapiens, CMK, 72 h, read-out: CMK
CHRF288-11 [7] = experiment: cells; parameters: species or system AML cell lines (8); Secondary HTS, 10-point dose-response in triplicate, Cell Titer Glo viability, four-parameter fit EC50; conditions: 72 h, read-out: CHRF288-11
U937 [8] = experiment: cells; parameters: species or system AML cell lines (8); Secondary HTS, 10-point dose-response in triplicate, Cell Titer Glo viability, four-parameter fit EC50; conditions: Homo sapiens, U-937, 72 h, read-out: U937
CMK [9] = experiment: Secondary dose-response HTS, Cell Titer Glo; assay type: cell-based, human; conditions: Homo sapiens, CMK, read-out: average effective concentration, CMK
MOLM-13 [10] = experiment: cells; parameters: species or system AML cell lines (8); Secondary HTS, 10-point dose-response in triplicate, Cell Titer Glo viability, four-parameter fit EC50; conditions: Homo sapiens, MOLM-13, 72 h, read-out: MOLM-13
CHRF288-11 [11] = experiment: Secondary dose-response HTS, Cell Titer Glo; assay type: cell-based, human; conditions: for EC50: Homo sapiens, HTS, read-out: average effective concentration, CHRF288-11
MV4-11 [12] = experiment: cells; parameters: species or system AML cell lines (8); Secondary HTS, 10-point dose-response in triplicate, Cell Titer Glo viability, four-parameter fit EC50; conditions: Homo sapiens, MV4-11, 72 h, read-out: MV4-11
M07e [13] = experiment: Secondary dose-response HTS, Cell Titer Glo; assay type: cell-based, human; conditions: secondary high-throughput screen
CMS [14] = experiment: cells; parameters: species or system AML cell lines (8); Secondary HTS, 10-point dose-response in triplicate, Cell Titer Glo viability, four-parameter fit EC50; conditions: 72 h, read-out: CMS
CMK [15] = system: CMK; parameters: species or system AML cell lines (8); Primary HTS, single concentration about 10 uM, Cell Titer Glo viability; log10 luminescence, per cent inhibition relative to cycloheximide control; conditions: 72 h, relative to cycloheximide control, log10 luminescence, inhibitor, CMK %inh, 10 µM
MV4-11 [16] = system: MV4-11; parameters: species or system AML cell lines (8); Primary HTS, single concentration about 10 uM, Cell Titer Glo viability; log10 luminescence, per cent inhibition relative to cycloheximide control; conditions: 72 h, relative to cycloheximide control, log10 luminescence, inhibitor, MV4-11 %inh, 10 µM
ML-2 = system: ML-2; parameters: species or system AML cell lines (8); Primary HTS, single concentration about 10 uM, Cell Titer Glo viability; log10 luminescence, per cent inhibition relative to cycloheximide control; conditions: 72 h, relative to cycloheximide control, log10 luminescence, inhibitor, ML-2 %inh, 10 µM
CMS [17] = system: CMS; parameters: species or system AML cell lines (8); Primary HTS, single concentration about 10 uM, Cell Titer Glo viability; log10 luminescence, per cent inhibition relative to cycloheximide control; conditions: 72 h, relative to cycloheximide control, log10 luminescence, inhibitor, CMS %inh, 10 µM
M07e [18] = system: M07e; parameters: species or system AML cell lines (8); Primary HTS, single concentration about 10 uM, Cell Titer Glo viability; log10 luminescence, per cent inhibition relative to cycloheximide control; conditions: 72 h, relative to cycloheximide control, log10 luminescence, inhibitor, M07e %inh, 10 µM
CHRF288-11 [19] = system: CHRF288-11; parameters: species or system AML cell lines (8); Primary HTS, single concentration about 10 uM, Cell Titer Glo viability; log10 luminescence, per cent inhibition relative to cycloheximide control; conditions: 72 h, relative to cycloheximide control, log10 luminescence, inhibitor, CHRF288-11 %inh, 10 µM
[20] = secondary high-throughput screen, MV4-11, read-out: average effective concentration, MV4-11
[21] = secondary high-throughput screen, MOLM-13, read-out: average effective concentration, MOLM-13
[22] = secondary high-throughput screen, CMS
[23] = secondary high-throughput screen, ML-2, read-out: average effective concentration, ML-2
[24] = secondary high-throughput screen, CHRF288-11
[25] = secondary high-throughput screen

Compound | EC50 (MV4-11 [1]; [20]) | EC50 (MOLM-13 [2]; [21]) | EC50 (CMS [3]; [22]) | EC50 (ML2; [23]) | EC50 (U937 [4]) | EC50 (M07e [5]) | EC50 (CMS [3]) | EC50 (CMK [9]) | EC50 (CHRF288-11 [11]; [24]) | also measured
CN1CC[C@H](c2c(O)cc(O)c3c(=O)cc(-c4ccccc4Cl)oc23)[C@H](O)C1 [ALVOCIDIB] | 50 nM | 36 nM | 64 nM | 47 nM | 29 nM | > 10000 nM |  |  |  | EC50 (CMK [6]): > 10000 nM; EC50 (CHRF288-11 [7]): > 10000 nM
CC(C)c1cc(C(=O)N2Cc3ccc(CN4CCN(C)CC4)cc3C2)c(O)cc1O [AT13387] | 8 nM |  |  | 23 nM |  | > 10000 nM | 34 nM | 11 nM | 39 nM | EC50 (U937 [8]): > 10000 nM; EC50 (MOLM-13 [10]): 9.4 nM
Cn1c(Nc2ccc(C(F)(F)F)cc2)nc2cc(Oc3ccnc(-c4ncc(C(F)(F)F)[nH]4)c3)ccc21 [CHIR-265] |  |  | 10000 nM | > 10000 nM |  | > 10000 nM |  |  | 6800 nM | EC50 (U937 [8]): > 10000 nM; EC50 (MV4-11 [12]): > 10000 nM; EC50 (MOLM-13 [10]): > 10000 nM; EC50 (CMK [6]): > 10000 nM
CN[C@@H]1C[C@H]2O[C@@](C)([C@@H]1OC)n1c3ccccc3c3c4c(c5c6ccccc6n2c5c31)C(=O)N[C@H]4O [Compound 7-HYDROXYSTAUROSPORINE] |  |  |  |  |  |  |  |  |  | average effective concentration, M07e (M07e [13]; […]): Inactive
CC(C)c1cc(-c2n[nH]c(=O)n2-c2ccc3c(ccn3C)c2)c(O)cc1O [GANETESPIB] | 1 nM | 2.4 nM |  | 5.4 nM | 1.6 nM | > 10000 nM | 10 nM | 2.3 nM | 7 nM | EC50 (CMS [14]): 9.6 nM
C[C@@H](Oc1cc(-n2cnc3ccc(CN4CCN(C)CC4)cc32)sc1C(N)=O)c1ccccc1C(F)(F)F [GSK461364] | 590 nM | 170 nM |  | 59 nM | 90 nM | > 10000 nM | 10000 nM | 750 nM |  | EC50 (CHRF288-11 [7]): > 10000 nM
OC(c1cc(C(F)(F)F)nc2c(C(F)(F)F)cccc12)C1CCCCN1 (stereo not shown) [MEFLOQUINE] |  |  | > 10000 nM | > 10000 nM | > 10000 nM | > 10000 nM |  |  | > 10000 nM | EC50 (MV4-11 [12]): > 10000 nM; EC50 (MOLM-13 [10]): > 10000 nM; EC50 (CMK [6]): > 10000 nM
CNC(=O)c1nn(C)c2c1C(C)(C)Cc1cnc(Nc3ccc(N4CCN(C)CC4)cc3)nc1-2 [MILCICLIB] | 1 nM | 1 nM |  | 5600 nM | 5300 nM | > 10000 nM | 6400 nM | 29 nM | 2200 nM | 
CC1(C)CCC(c2ccc(Cl)cc2)=C(CN2CCN(c3ccc(C(=O)NS(=O)(=O)c4ccc(N[C@H](CCN5CCOCC5)CSc5ccccc5)c(S(=O)(=O)C(F)(F)F)c4)cc3)CC2)C1 [NAVITOCLAX] | 68 nM | 5100 nM |  | 7100 nM | > 10000 nM | > 10000 nM | 29 nM | 1200 nM | > 10000 nM | CMK %inh (CMK [15]): 132.4% and 82.78%; MV4-11 %inh (MV4-11 [16]): 77.41% and 95.61%; ML-2 %inh (ML-2): 57.75% and 49.42%; CMS %inh (CMS [17]): 98.49% and 71.04%; M07e %inh (M07e [18]): 48.21% and 73.78%; CHRF288-11 %inh (CHRF288-11 [19]): 23.49% and 12.88%
CCNC(=O)c1cc2c(-c3cc(OCCN4CCCC4)c(Cl)cc3Cl)nc(N)nc2s1 [NVP-BEP800] |  |  |  |  |  |  |  |  |  | average effective concentration, M07e (M07e [13]; […]): Inactive
COc1ccc(-c2cc3c(C)nc(N)nc3n([C@H]3CC[C@H](OCCO)CC3)c2=O)cn1 [PF-04691502] |  |  |  |  |  |  |  |  |  | average effective concentration, M07e (M07e [13]; M07e): Inactive
Cc1cnc(NC(=O)Nc2cc(Br)c(C)cc2OC[C@@H]2CNCCO2)cn1 [RABUSERTIB] | 500 nM | 400 nM | 8500 nM | 74 nM | 3300 nM | > 10000 nM |  |  | 2100 nM | EC50 (CMK [9]; [25]): 450 nM
COc1cc(F)c(F)c(Nc2ccc(I)cc2F)c1NS(=O)(=O)C1(C[C@H](O)CO)CC1 [REFAMETINIB] |  | 1200 nM | > 10000 nM | 1 nM |  | > 10000 nM |  |  |  | EC50 (U937 [8]): > 10000 nM; EC50 (MV4-11 [12]): > 10000 nM; EC50 (CMK [9]; [25]): 8600 nM; EC50 (CHRF288-11 [7]): > 10000 nM
Cn1cc(-c2cnn3c(N)c(Br)c([C@@H]4CCCNC4)nc23)cn1 [SCH-900776] |  |  |  |  |  | > 10000 nM | > 10000 nM | 130 nM |  | EC50 (U937 [8]): > 10000 nM; EC50 (MV4-11 [1]; MV4-11, read-out: average effective concentration, MV4-11): 83 nM; EC50 (MOLM-13 [2]; MOLM-13, read-out: average effective concentration, MOLM-13): 51 nM; EC50 (ML2; ML-2, read-out: average effective concentration, ML-2): 53 nM; EC50 (CHRF288-11 [11]): 470 nM
C=CCNC1=C2C[C@@H](C)C[C@H](OC)[C@H](O)[C@@H](C)/C=C(\C)[C@H](OC(N)=O)[C@@H](OC)/C=C\C=C(/C)C(=O)NC(=CC1=O)C2=O [TANESPIMYCIN] | 120 nM | 80 nM | 180 nM | 100 nM | 50 nM | > 10000 nM |  |  | 1300 nM | EC50 (CMK [9]; [25]): 280 nM
CC[C@]1(O)C[C@@H]2CN(CCc3c([nH]c4ccccc34)[C@@](C(=O)OC)(c3cc4c(cc3OC)N(C)[C@H]3[C@@](O)(C(=O)OC)[C@H](OC(C)=O)[C@]5(CC)C=CCN6CC[C@]43[C@@H]65)C2)C1 [VINBLASTINE SULFATE] | 56 nM | 220 nM | 340 nM | 570 nM | 160 nM | > 10000 nM |  |  | 570 nM | EC50 (CMK [9]; [25]): 3800 nM
CCC1=C[C@@H]2CN(C1)Cc1c([nH]c3ccccc13)[C@@](C(=O)OC)(c1cc3c(cc1OC)N(C)[C@H]1[C@@](O)(C(=O)OC)[C@H](OC(C)=O)[C@]4(CC)C=CCN5CC[C@]31[C@@H]54)C2 [VINORELBINE] | 32 nM | 29 nM |  | 40 nM | 32 nM | > 10000 nM | 240 nM |  | 2100 nM | EC50 (CMK [6]): > 10000 nM
CCOc1cc(N2CCC(O)CC2)ccc1Nc1ncc2c(n1)N(C)c1ccccc1C(=O)N2C [XMD 8-92] |  |  |  |  |  |  |  |  |  | average effective concentration, M07e (M07e [13]; M07e): Inactive; average effective concentration, ML-2 (ML2; secondary high-throughput screen, ML-2): Inactive; average effective concentration, CHRF288-11 (CHRF288-11 [11]; [24]): Inactive
COCCn1c2c([n+](Cc3cnccn3)c1C)C(=O)c1ccccc1C2=O [YM-155] | 20 nM | 10 nM | 91 nM | 21 nM | 22 nM | > 10000 nM |  |  | 2300 nM | EC50 (CMK [9]; [25]): 31 nM
